Test results reported in article PMC7187334 (Clinical Pharmacology in Drug Development, 2019).

Assays:
P‐glycoprotein = P‐glycoprotein (Homo sapiens, UniProt P08183); assay: P-glycoprotein inhibition in vitro; assay type: in vitro ADME
[1] = tested on: leukotriene B4 production; settings: healthy volunteers, first-in-human study; 95% CI 4.8-5.8 nM; read-out: IC50, inhibition of leukotriene B4 production, whole-blood ex vivo stimulation assay; cited from earlier work
[2] = tested on: leukotriene E4 levels in urine; settings: healthy volunteers, first-in-human study; 95% CI 0.7-1.0 nM; read-out: IC50, reduction of endogenous leukotriene E4 levels in urine; cited from earlier work
CYP1A2 = settings: in vitro; read-out: IC50, CYP1A2 inhibition; cited from earlier work
CYP2C8 = settings: in vitro; read-out: IC50, CYP2C8 inhibition; cited from earlier work
CYP2D6 = settings: in vitro; read-out: IC50, CYP2D6 inhibition; cited from earlier work
[3] = target: organic anion‐transporting polypeptide 1B1 (OATP1B1) (Homo sapiens, UniProt Q9Y6L6); assay: OATP1B1 transporter inhibition in vitro; settings: read-out: IC50, OATP1B1 inhibition, unpublished data
Chain of organic anion‐transporting polypeptide 1B1 (OATP1B1) (Q9Y6L6 whole entry): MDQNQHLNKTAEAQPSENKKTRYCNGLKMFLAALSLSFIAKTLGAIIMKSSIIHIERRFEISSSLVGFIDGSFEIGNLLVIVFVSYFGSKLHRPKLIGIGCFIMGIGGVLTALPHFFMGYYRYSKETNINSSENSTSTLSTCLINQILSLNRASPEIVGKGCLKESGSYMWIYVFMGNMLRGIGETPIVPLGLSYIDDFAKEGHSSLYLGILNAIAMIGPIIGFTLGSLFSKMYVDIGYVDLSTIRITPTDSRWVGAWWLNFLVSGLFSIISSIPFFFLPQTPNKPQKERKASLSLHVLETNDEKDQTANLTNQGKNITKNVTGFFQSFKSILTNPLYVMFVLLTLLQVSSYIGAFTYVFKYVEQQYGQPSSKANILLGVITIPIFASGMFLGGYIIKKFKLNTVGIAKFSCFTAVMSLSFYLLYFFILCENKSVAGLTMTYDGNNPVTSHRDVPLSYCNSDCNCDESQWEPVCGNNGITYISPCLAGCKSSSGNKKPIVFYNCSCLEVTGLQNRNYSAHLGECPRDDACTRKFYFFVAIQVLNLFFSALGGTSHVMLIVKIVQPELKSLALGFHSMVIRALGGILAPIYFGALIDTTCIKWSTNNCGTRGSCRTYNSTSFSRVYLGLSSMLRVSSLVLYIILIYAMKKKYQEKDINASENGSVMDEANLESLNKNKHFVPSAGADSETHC

Chain of P‐glycoprotein (P08183 whole entry): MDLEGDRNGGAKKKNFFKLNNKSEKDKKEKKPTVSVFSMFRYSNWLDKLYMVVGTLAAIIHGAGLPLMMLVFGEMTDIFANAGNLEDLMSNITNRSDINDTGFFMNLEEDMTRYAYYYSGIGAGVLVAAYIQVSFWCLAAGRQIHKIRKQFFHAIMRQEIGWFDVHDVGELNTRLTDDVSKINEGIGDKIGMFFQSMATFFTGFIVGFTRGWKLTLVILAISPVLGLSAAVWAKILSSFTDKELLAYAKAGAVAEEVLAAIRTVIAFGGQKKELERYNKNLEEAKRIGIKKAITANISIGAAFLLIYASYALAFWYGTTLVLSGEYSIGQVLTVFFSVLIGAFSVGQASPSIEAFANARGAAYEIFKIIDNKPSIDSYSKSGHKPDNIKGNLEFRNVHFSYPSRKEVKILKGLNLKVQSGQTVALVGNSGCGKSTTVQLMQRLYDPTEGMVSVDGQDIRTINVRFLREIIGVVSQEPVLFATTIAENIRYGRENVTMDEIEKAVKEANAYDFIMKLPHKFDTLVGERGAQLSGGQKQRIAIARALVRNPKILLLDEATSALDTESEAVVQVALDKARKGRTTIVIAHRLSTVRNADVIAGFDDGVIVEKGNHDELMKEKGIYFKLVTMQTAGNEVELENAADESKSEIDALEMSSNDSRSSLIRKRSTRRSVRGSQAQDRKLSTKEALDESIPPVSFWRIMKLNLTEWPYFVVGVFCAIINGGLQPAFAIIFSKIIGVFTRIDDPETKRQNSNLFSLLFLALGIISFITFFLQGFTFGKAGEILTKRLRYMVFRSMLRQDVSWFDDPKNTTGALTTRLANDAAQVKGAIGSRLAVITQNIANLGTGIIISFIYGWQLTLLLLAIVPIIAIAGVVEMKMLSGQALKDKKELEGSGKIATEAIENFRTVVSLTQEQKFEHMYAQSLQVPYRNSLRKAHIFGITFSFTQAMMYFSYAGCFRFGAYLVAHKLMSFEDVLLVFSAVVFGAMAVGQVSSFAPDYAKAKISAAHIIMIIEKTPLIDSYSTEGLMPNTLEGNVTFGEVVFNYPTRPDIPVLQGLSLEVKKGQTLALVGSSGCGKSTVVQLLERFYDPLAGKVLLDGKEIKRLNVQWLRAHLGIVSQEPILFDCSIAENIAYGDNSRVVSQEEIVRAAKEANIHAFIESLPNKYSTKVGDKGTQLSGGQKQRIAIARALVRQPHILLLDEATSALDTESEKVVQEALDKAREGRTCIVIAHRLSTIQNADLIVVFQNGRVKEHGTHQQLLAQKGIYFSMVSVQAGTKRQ

Cc1cc(-c2ccc(C(=O)[C@@H]3CCCC[C@H]3C(=O)Nc3cnn4c3C(=O)NCC4)cc2)n[nH]1 [AZD5718]
IC50 (P‐glycoprotein): > 100000 nM | IC50 [1]: 5.3 nM | IC50 [2]: 0.8 nM | IC50 (CYP1A2): > 20000 nM | IC50 (CYP2C8): > 20000 nM | IC50 (CYP2D6): > 20000 nM | IC50 [3]: 2300 nM
